Source: patent publication US11622990B2, “VAP polypeptide and use thereof in preparation of drug for targeted diagnosis and treatment of tumor” (FUDAN UNIVERSITY, priority 2016, dated 2023)
Ends that are not written are not given here.

Experiments:
intracranial U87 tumor = assay: Anti-glioblastoma efficacy test of intracranial glioma (survival); assay type: in vivo, nude mice
Description: After the nude mice was anesthetized and fixed with stereotaxic apparatus, intracranial U87 tumor bearing model was established on nude mice by implanted with U87 cells (5×10^5 cells dispersed in 5 μL of PBS buffer for each mouse) in the logarithmic growth phase into the right striatum (0.6 mm in front of […], 1.8 mm in the lateral direction, and 3 mm in depth). The status of naked mice was observed regularly. […] The total dose of DOX was 10 mg/Kg except 2.5 mg/Kg for low dose and 5 mg/kg for medium dose. The ^DVAP dose was the amount of ^DVAP contained in the high dose of ^DVAP-DOX. The survival time of mice were recorded (FIG. 24).

GRP78 protein [1] = molecular target: T1, GRP78 protein (Homo sapiens, UniProt P11021); assay: Binding activity of VAP to GRP78 by surface plasmon resonance (Biacore); conditions: SPR, GRP78 coupled to CM5 chip
Description: Pre-binding analysis was performed by the biacore system, and pH 5.0 was selected as the optimal pH for GRP78 binding to the CMS chip. […] The samples were injected from low to high concentration.

GRP78 protein [2] = molecular target: T1, GRP78 protein; assay: VAP mutual competition inhibition test on U87 cells (flow cytometry); assay type: cell-based; set-up: saturate the receptor protein on the cell surface; endogenous in cells; host or cells: U87 glioma cells; conditions: 4° C., unlabeled peptide before fluorescein-labeled peptide
Description: U87 cells were digested by trypsin and transferred to EP tubes, washed with PBS three times to remove trypsin, pretreated at 4° C. for 20 min. The prepared peptide solution (non-fluorescent label) was also placed at 4° C. for low temperature pretreatment, then the peptide solution was mixed with the cells and shocked for 2 h to saturate the receptor protein on the cell surface. Then the fluorescein-labeled peptide solution was added.

[3] = Serum stability of VAP peptides in mouse serum; assay type: in vitro ADME; conditions: 50% mouse serum, 37° C., after 2 h incubation
Description: At 0 and 15 min, 0.5, 1, 2 and 4 h, 100 μL solution was taken out and 20 μL trichloroacetic acid (TCA) was added to precipitate protein of the serum, after standing for 20 min at 4° C., the solution was centrifuged at 12,000 rpm for 10 min. 20 μL supernatant was taken for HPLC analysis.

T1 sequence (P11021 19-654): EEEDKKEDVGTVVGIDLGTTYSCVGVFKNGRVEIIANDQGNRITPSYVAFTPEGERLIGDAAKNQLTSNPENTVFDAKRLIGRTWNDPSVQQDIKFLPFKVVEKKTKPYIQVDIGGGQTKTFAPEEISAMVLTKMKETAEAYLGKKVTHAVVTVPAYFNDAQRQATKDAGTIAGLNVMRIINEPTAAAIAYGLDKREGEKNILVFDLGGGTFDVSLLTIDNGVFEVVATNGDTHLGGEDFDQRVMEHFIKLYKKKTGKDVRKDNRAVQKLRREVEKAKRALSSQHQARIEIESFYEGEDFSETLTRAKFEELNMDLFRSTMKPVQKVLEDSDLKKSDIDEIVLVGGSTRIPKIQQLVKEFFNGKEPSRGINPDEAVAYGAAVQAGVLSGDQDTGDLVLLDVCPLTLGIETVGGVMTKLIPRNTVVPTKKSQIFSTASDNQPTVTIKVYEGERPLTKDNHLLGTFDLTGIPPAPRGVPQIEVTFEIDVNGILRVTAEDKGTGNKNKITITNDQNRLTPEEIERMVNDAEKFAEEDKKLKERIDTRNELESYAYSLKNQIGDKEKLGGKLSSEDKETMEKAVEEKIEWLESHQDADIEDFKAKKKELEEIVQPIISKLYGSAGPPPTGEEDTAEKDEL

COc1cccc2c1C(=O)c1c(O)c3c(c(O)c1C2=O)C[C@@](O)(C(=O)CO)C[C@@H]3O[C@H]1C[C@H](N)[C@H](O)[C@H](C)O1 [DOX, doxorubicin]
mean survival time (intracranial U87 tumor; total dose of DOX 10 mg/Kg (high dose), tail vein, days 10, 13, 16, 19, 22): 36 days | AUC0-6h (FIGS. 25A-25B): 7976 ± 1515 ng·h/mL | MRT0-6h (FIGS. 25A-25B): 1.836 ± 0.695 h | T1/2 (FIGS. 25A-25B): 2.131 ± 0.646 h

CC(C)[C@@H](NC(=O)[C@@H](C)NC(=O)[C@H]1CCCN1)C(=O)N[C@H](CCCNC(=N)N)C(=O)N[C@@H](C(=O)N[C@H](CC(N)=O)C(=O)N[C@H](CO)C(=O)O)[C@H](C)O [^DVAP]
mean survival time (intracranial U87 tumor; ^DVAP alone, amount contained in the high dose of ^DVAP-DOX): 45.5 days | Kd value (dissociation) (GRP78 protein [1]): 0.02091 s⁻¹ | competitive inhibition between VAP peptides (GRP78 protein [2]): completely inhibit each other | residual percentage of intact polypeptide (degradation) [3]: hardly degraded

CC(C)[C@@H](NC(=O)[C@@H](CCCNC(=N)N)NC(=O)[C@H](NC(=O)[C@@H](CC(N)=O)NC(=O)[C@H](N)CO)[C@H](C)O)C(=O)N[C@H](C)C(=O)N1CCC[C@@H]1C(=O)O [^SVAP]
Kd (GRP78 protein [1]): 5.22 µM | Kd value (dissociation) (GRP78 protein [1]): 0.02826 s⁻¹ | competitive inhibition between VAP peptides (GRP78 protein [2]): completely inhibit each other | residual percentage of intact polypeptide (degradation) [3]: hardly degraded

SNTRVAP [^LVAP, reference compound]
Kd value (dissociation) (GRP78 protein [1]): 0.01898 s⁻¹ | competitive inhibition between VAP peptides (GRP78 protein [2]): completely inhibit each other | residual percentage of intact polypeptide (degradation) [3]: completely degraded
